The values that follow come from patent US20140288071A1, “INHIBITORS OF NOTUM […] AND METHODS OF THEIR USE” (priority 2011, published 2014).

Structures are written as SMILES. A value given as a limit tells only on which side of the number the result lay.

The target in one test is T1, human notum pectinacetyltransferase (Homo sapiens, UniProt Q6P988).
T1 construct: made in house; conditioned medium used
T1 sequence (Q6P988 20-496): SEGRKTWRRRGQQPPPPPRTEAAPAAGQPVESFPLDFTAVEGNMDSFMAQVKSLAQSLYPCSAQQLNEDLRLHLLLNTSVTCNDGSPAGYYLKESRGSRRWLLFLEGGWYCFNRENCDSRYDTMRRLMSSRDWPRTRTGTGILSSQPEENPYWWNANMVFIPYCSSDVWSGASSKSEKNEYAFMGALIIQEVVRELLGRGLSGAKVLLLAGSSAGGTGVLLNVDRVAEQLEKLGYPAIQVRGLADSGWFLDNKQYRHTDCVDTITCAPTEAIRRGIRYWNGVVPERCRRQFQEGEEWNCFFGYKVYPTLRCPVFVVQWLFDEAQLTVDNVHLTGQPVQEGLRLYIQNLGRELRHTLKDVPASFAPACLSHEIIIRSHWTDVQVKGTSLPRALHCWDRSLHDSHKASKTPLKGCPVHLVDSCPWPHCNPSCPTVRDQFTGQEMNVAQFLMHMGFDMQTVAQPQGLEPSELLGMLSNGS
In words: Binding assay (OPTS esterase substrate, fluorimetric). Format: biochemical. Conditions: OPTS substrate 5 μM. On the procedure: Plasmid containing human notum pectinacetyltransferase in pcDNA3.1(+) vector was transfected into HEK293 cells and clones were selecting by growing in presence of 400 ug/mL of G418. Condition media from these cells was used for the assay.
Regarding `Cc1sc2ncnc(SCC(=O)NCc3ccco3)c2c1Cl` [2-((5-chloro-6-methylthieno[2,3-d]pyrimidin-4-yl)thio)-N-(furan-2-ylmethyl)acetamide], the concentration for half-maximal inhibition (IC50) was below 25 nM.
On to `Cc1sc2ncnc(SCC(=O)NO)c2c1C` [2-((5,6-dimethylthieno[2,3-d]pyrimidin-4-yl)thio)-N-hydroxyacetamide], for which the IC50 is below 25 nM.
Same read-out and setting: with `Cc1sc2ncnc(SCC(=O)NC#N)c2c1C` [N-cyano-2-((5,6-dimethylthieno[2,3-d]pyrimidin-4-yl)thio)acetamide] the figure was below 25 nM; with `Cc1c(Br)sc2ncnc(SCC(=O)O)c12` [2-((6-bromo-5-methylthieno[2,3-d]pyrimidin-4-yl)thio)acetic acid], below 25 nM.
Compound `CCNC(=O)CSc1ncnc2sc(C)c(Cl)c12` [2-((5-chloro-6-methylthieno[2,3-d]pyrimidin-4-yl)thio)-N-ethylacetamide] showed an IC50 below 25 nM.
In turn, `Cc1sc2ncnc(SCC(=O)Nc3n[nH]c4cccc(Cl)c34)c2c1C` [N-(4-chloro-1H-indazol-3-yl)-2-((5,6-dimethylthieno[2,3-d]pyrimidin-4-yl)thio)acetamide] came in with a concentration for half-maximal inhibition (IC50) below 25 nM.
Turning to `CC(C)c1sc2ncnc(SCC(=O)O)c2c1Br` [2-((5-bromo-6-isopropylthieno[2,3-d]pyrimidin-4-yl)thio)acetic acid], the IC50 was below 25 nM.
The same measure, in the same setting: with `Cc1c(C(C)C)sc2ncnc(SCC(=O)O)c12` [2-((6-isopropyl-5-methylthieno[2,3-d]pyrimidin-4-yl)thio)acetic acid] the figure was below 50 nM.
Still for that read-out and setting: then `Cc1csc2ncnc(SCC(=O)O)c12` [2-((5-methylthieno[2,3-d]pyrimidin-4-yl)thio)acetic acid], with below 100 nM.
Same read-out and setting: then `Cc1sc2ncnc(SCC(=O)Nc3ccccc3F)c2c1C` [2-((5,6-dimethylthieno[2,3-d]pyrimidin-4-yl)thio)-N-(2-fluorophenyl)acetamide], with below 25 nM; and `Cc1sc2ncnc(SCC(=O)NS(=O)(=O)C3CC3)c2c1C` [N-(cyclopropylsulfonyl)-2-((5,6-dimethylthieno[2,3-d]pyrimidin-4-yl)thio)acetamide], with below 25 nM.
`COC(=O)CSc1ncnc2sc(C)c(C3CC3)c12` [methyl 2-((5-cyclopropyl-6-methylthieno[2,3-d]pyrimidin-4-yl)thio)acetate] showed an IC50 below 25 nM.
Consider `Cc1sc2ncnc(SCC(=O)NCCc3c[nH]cn3)c2c1Cl` [N-(2-(1H-imidazol-4-yl)ethyl)-2-((5-chloro-6-methylthieno[2,3-d]pyrimidin-4-yl)thio)acetamide], for which the 50% inhibitory concentration (IC50) was below 25 nM.
Consider `CCc1sc2ncnc(SCC(=O)O)c2c1C` [2-((6-ethyl-5-methylthieno[2,3-d]pyrimidin-4-yl)thio)acetic acid], for which the 50% inhibitory concentration (IC50) is below 25 nM.
The same measure, in the same setting: then `Cc1c(Br)sc2c(SCC(=O)O)ncnc12` [2-((6-bromo-7-methylthieno[3,2-d]pyrimidin-4-yl)thio)acetic acid], with below 25 nM.
Same read-out and setting: then `CCS(=O)(=O)NC(=O)CSc1ncnc2sc(C)c(C)c12` [2-((5,6-dimethylthieno[2,3-d]pyrimidin-4-yl)thio)-N-(ethylsulfonyl)acetamide], with below 25 nM; and `Cc1c(Cl)sc2ncnc(SCC(=O)O)c12` [2-((6-chloro-5-methylthieno[2,3-d]pyrimidin-4-yl)thio)acetic acid], with below 25 nM.
The compound `Cc1sc2ncnc(SCC(=O)NCc3cccs3)c2c1Cl` [2-((5-chloro-6-methylthieno[2,3-d]pyrimidin-4-yl)thio)-N-(thiophen-2-ylmethyl)acetamide] displayed a concentration for half-maximal inhibition (IC50) below 25 nM.
For `Cc1sc2ncnc(SCC(=O)NCc3ccncc3)c2c1Cl` [2-((5-chloro-6-methylthieno[2,3-d]pyrimidin-4-yl)thio)-N-(pyridin-4-ylmethyl)acetamide], the 50% inhibitory concentration (IC50) was below 25 nM.
Still for that read-out and setting: with `Cc1sc2ncnc(SCC(=O)N3CCC(C(N)=O)CC3)c2c1C` [1-(2-((5,6-dimethylthieno[2,3-d]pyrimidin-4-yl)thio)acetyl)piperidine-4-carboxamide] the figure was below 250 nM; with `Cc1sc2ncnc(SCC(=O)NCc3cccs3)c2c1C` [2-((5,6-dimethylthieno[2,3-d]pyrimidin-4-yl)thio)-N-(thiophen-2-ylmethyl)acetamide], below 100 nM.
On the same count and under the same terms, then `Cc1sc2c(SCC(=O)O)ncnc2c1C` [2-((6,7-dimethylthieno[3,2-d]pyrimidin-4-yl)thio)acetic acid], with below 25 nM.
`Cc1ccc(S(=O)(=O)NC(=O)CSc2ncnc3sc(C)c(C)c23)nc1` [2-((5,6-dimethylthieno[2,3-d]pyrimidin-4-yl)thio)-N-((5-methylpyridin-2-yl)sulfonyl)acetamide]: the concentration for half-maximal inhibition (IC50) is below 100 nM.
For the compound `CCCNC(=O)CSc1ncnc2sc(C)c(Cl)c12` [2-((5-chloro-6-methylthieno[2,3-d]pyrimidin-4-yl)thio)-N-propylacetamide], the IC50 is below 25 nM.
`COC(=O)CSc1ncnc2c(C3CC3)c(Cl)sc12` [methyl 2-((6-chloro-7-cyclopropylthieno[3,2-d]pyrimidin-4-yl)thio)acetate] had an IC50 below 25 nM.
Same read-out and setting: then `COC(=O)CSc1ncnc2sc(C3CC3)c(C)c12` [methyl 2-((6-cyclopropyl-5-methylthieno[2,3-d]pyrimidin-4-yl)thio)acetate], with below 25 nM; and `Cc1sc2ncnc(SCC(=O)NCc3ccco3)c2c1C` [2-((5,6-dimethylthieno[2,3-d]pyrimidin-4-yl)thio)-N-(furan-2-ylmethyl)acetamide], with below 25 nM.
Regarding `COc1cc2c(cc1OC)CN(C(=O)CSc1ncnc3sc(C)c(C)c13)C2` [1-(5,6-dimethoxyisoindolin-2-yl)-2-((5,6-dimethylthieno[2,3-d]pyrimidin-4-yl)thio)ethanone], the half-maximal inhibitory concentration (IC50) is below 25 nM.
Same read-out and setting: with `Cc1csc(CCNC(=O)CSc2ncnc3sc(C)c(Cl)c23)n1` [2-((5-chloro-6-methylthieno[2,3-d]pyrimidin-4-yl)thio)-N-(2-(4-methylthiazol-2-yl)ethyl)acetamide] the figure was below 25 nM.

A further test has as its target T1, human notum pectinacetyltransferase. The test can be described thus: Reporter assay (CellSensor LEF/TCF-bla FreeStyle 293F cells, Wnt3a and notum conditioned media). Format: cell-based.
Settings: not given
On the procedure:
Plasmid containing human notum pectinacetyltransferase in pcDNA3.1(+) vector was transfected into HEK293 cells and clones were selecting by growing in presence of 400 ug/mL of G418. […] L cells overexpressing and secreting Wnt3a into the conditioned media were purchased from ATCC.
The assay protocol was as follows. […] The cell growth medium consisted of DMEM with 10% Dialyzed FBS, 5 μg/ml Blasticidin (Invitrogen, R210-01), 0.1 mM NEAA, 25 mM HEPES and 1×GPS. Cells were then trypsinized by first rinsing with PBS, followed by addition of 5 mL of trypsin and incubation of plates at room temperature for two minutes. A total of 10 mL of assay media (Opti-MEM, plus 0.5% dialyzed FBS, 0.1 mM NEAA, 1 mM sodium pyruvate, 10 mM HEPES, 1×GPS) was then added per 15 cm plate. Cells were counted and suspended at 0.75 million cells per mL. […] After incubation of cells at 37° C. for 3 hours, 10 μL of 30 mM LiCl in assay medium was added per well, followed by incubation at 37° C. for another 3 hours. […] Ten μL of the Wnt3a/notum pentinacetyltransferase mixture was then transferred from Greiner plates to each well of the 384-well plates containing the CellSensor cells. After incubation of cells overnight at 37° C., reactions were developed by addition of […] of 1×CCF4 (Invitrogen, Catalogue number K1085) to each well, covering the entire 384-well plate, and gentle rocking in the dark at room temperature for 3 hours.
`Cc1sc2ncnc(SCC(=O)NCc3ccco3)c2c1Cl` [2-((5-chloro-6-methylthieno[2,3-d]pyrimidin-4-yl)thio)-N-(furan-2-ylmethyl)acetamide] gave an EC50 below 1000 nM.
On the same count and under the same terms, then `Cc1sc2ncnc(SCC(=O)NO)c2c1C` [2-((5,6-dimethylthieno[2,3-d]pyrimidin-4-yl)thio)-N-hydroxyacetamide], with below 1000 nM; and `Cc1sc2ncnc(SCC(=O)NC#N)c2c1C` [N-cyano-2-((5,6-dimethylthieno[2,3-d]pyrimidin-4-yl)thio)acetamide], with below 1000 nM; and `Cc1c(Br)sc2ncnc(SCC(=O)O)c12` [2-((6-bromo-5-methylthieno[2,3-d]pyrimidin-4-yl)thio)acetic acid], with below 1000 nM.
For `CCNC(=O)CSc1ncnc2sc(C)c(Cl)c12` [2-((5-chloro-6-methylthieno[2,3-d]pyrimidin-4-yl)thio)-N-ethylacetamide], the 50% effective concentration (EC50) was below 1000 nM.
Same read-out and setting: then `CC(C)c1sc2ncnc(SCC(=O)O)c2c1Br` [2-((5-bromo-6-isopropylthieno[2,3-d]pyrimidin-4-yl)thio)acetic acid], with below 1000 nM.
The same measure, in the same setting: with `Cc1sc2ncnc(SCC(=O)N(C)CC(=O)O)c2c1Cl` [2-(2-((5-chloro-6-methylthieno[2,3-d]pyrimidin-4-yl)thio)-N-methylacetamido)acetic acid] the figure was below 1000 nM; with `Cc1sc2ncnc(SCC(=O)NC(C)CO)c2c1Cl` (centres unmarked) [2-((5-chloro-6-methylthieno[2,3-d]pyrimidin-4-yl)thio)-N-(1-hydroxypropan-2-yl)acetamide], below 5000 nM; with `Cc1sc2ncnc(SCC(=O)NS(C)(=O)=O)c2c1Cl` [2-((5-chloro-6-methylthieno[2,3-d]pyrimidin-4-yl)thio)-N-(methylsulfonyl)acetamide], below 1000 nM.
Same read-out and setting: with `Cc1c(C#N)sc2c(SCC(=O)O)ncnc12` [2-((6-cyano-7-methylthieno[3,2-d]pyrimidin-4-yl)thio)acetic acid] the figure was below 1000 nM; with `Cc1sc2ccnc(SCC(=O)O)c2c1Cl` [2-((3-chloro-2-methylthieno[3,2-c]pyridin-4-yl)thio)acetic acid], below 5000 nM; with `COC(=O)CSc1ncnc2c(C)c(C#N)sc12` [methyl 2-((6-cyano-7-methylthieno[3,2-d]pyrimidin-4-yl)thio)acetate], below 1000 nM.
`Cc1c(Cl)sc2c(SCC(=O)NCc3cccs3)ncnc12` [2-((6-chloro-7-methylthieno[3,2-d]pyrimidin-4-yl)thio)-N-(thiophen-2-ylmethyl)acetamide] registered a 50% effective concentration (EC50) below 1000 nM.
`Cc1c(C2CC2)sc2ncnc(SCC(=O)O)c12` [2-((6-cyclopropyl-5-methylthieno[2,3-d]pyrimidin-4-yl)thio)acetic acid] had a concentration for a half-maximal effect (EC50) below 5000 nM.
Regarding `Cc1c(Cl)sc2c(SCC(=O)NCCN3CCCCC3)ncnc12` [2-((6-chloro-7-methylthieno[3,2-d]pyrimidin-4-yl)thio)-N-(2-(piperidin-1-yl)ethyl)acetamide], the EC50 is below 1000 nM.
